ChEMBL document CHEMBL5634146, “Discovery of benzimidazole-indazole derivatives as potent FLT3-tyrosine kinase domain mutant kinase inhibitors for acute myeloid leukemia” (Eur J Med Chem, 2023)

Key:
in vitro [1] = conditions: mouse, liver S9 fraction
in vitro [2] = conditions: human, liver S9 fraction

- remaining at 0.5 h (in vitro [1]): 61%
- remaining at 0.5 h (in vitro [2]): 61%
SMILES: N[C@H]1CC[C@H](NC(=O)c2ccc3[nH]nc(-c4nc5ccc(N6CCOCC6)cc5[nH]4)c3c2)C1
